# Measured values as given in ChEMBL document CHEMBL6153048, “Synthesis and pharmacological evaluation of natural product diphyllin derivatives against head and neck squamous cell carcinoma” (Eur J Med Chem, 2025).
# pIC50: −log10 of the molar value. Calls of active or inactive are those of the source. The calls are words filed in the database; no cut-off is given here.
# Legend:
# [1] = test system: CAL-27; test: Effect on epithelial cell proliferation in human CAL-27 cells assessed as regulation of cell proliferation related gene expression at 1 nM incubated for 48 hrs by GO analysis; format: functional, cell-based
# [2] = test system: CAL-27; test: Induction of apoptosis in human CAL-27 cells assessed as early apoptotic cells at 100 nM incubated for 72 hrs by Annexin V-FITC/propidium iodide staining based flow cytometry analysis (reference value: 7.74%); format: functional
# [3] = test system: CAL-27; test: Antitumor activity against human CAL-27 cells xenografted in BALB/c mouse model assessed as reduction in reduction in Ki-67 expression at 0.6 mg/kg, iv treated four times a week for 30 days by immunohistochemical staining analysis; format: functional, organism-based; conditions: time 30.0 day
# [4] = test system: CAL-27; test: Induction of apoptosis in human CAL-27 cells assessed as late apoptotic cells at 1000 nM incubated for 72 hrs by Annexin V-FITC/propidium iodide staining based flow cytometry analysis (reference value: 1.82%); format: functional
# [5] = test system: CAL-27; test: Induction of apoptosis in human CAL-27 cells assessed as late apoptotic cells at 10 nM incubated for 72 hrs by Annexin V-FITC/propidium iodide staining based flow cytometry analysis (reference value: 1.82%); format: functional
# [6] = test system: CAL-27; test: Antitumor activity against human CAL-27 cells xenografted in BALB/c mouse model assessed as tumor volume change at 0.3 mg/kg, iv treated four times a week for 30 days; format: functional; conditions: CAL-27, 720 h, time 30 day, read-out: TGI
# [7] = test system: CAL-27; test: Induction of apoptosis in human CAL-27 cells assessed as viable cells at 100 nM incubated for 72 hrs by Annexin V-FITC/propidium iodide staining based flow cytometry analysis (reference value: 90.41%); format: functional; conditions: read-out: Activity
# [8] = test system: CAL-27; test: Induction of cell cycle arrest in human CAL-27 cells assessed as accumulation of cells at S phase at 1 to 1000 nM incubated for 48 hrs by flow cytometry analysis (Rvb=18%); format: functional; conditions: dose 1-1000 nM
# [9] = Half life in ICR mouse at 3 mg/kg, po measured upto 24 hrs by LC-MS/MS analysis; format: ADME, organism-based; conditions: in vivo
# [10] = test system: CAL-27; test: Induction of apoptosis in human CAL-27 cells assessed as late apoptotic cells at 1 nM incubated for 72 hrs by Annexin V-FITC/propidium iodide staining based flow cytometry analysis (reference value: 1.82%); format: functional
# [11] = test system: CAL-27; test: Induction of apoptosis in human CAL-27 cells assessed as viable cells at 1000 nM incubated for 72 hrs by Annexin V-FITC/propidium iodide staining based flow cytometry analysis (reference value: 90.41%); format: functional; conditions: read-out: Activity
# [12] = test system: CAL-27; test: Antitumor activity against human CAL-27 cells xenografted in BALB/c mouse model assessed as reduction in tumor weight at 0.3 mg/kg, iv treated four times a week for 30 days; format: functional; parameters: scale not given: the % may be the effect or the level left; conditions: time 30 day
# [13] = test system: CAL-27; test: Antiproliferative activity against human CAL-27 cells assessed as inhibition of cell communities at 1 uM treated for 11 days by plate clone formation assay; format: functional, cell-based; conditions: time 11.0 day
# [14] = test system: CAL-27; test: Effect on cell adhesion molecule in human CAL-27 cells assessed as regulation of gene expression at 1 nM incubated for 48 hrs by GSEA analysis; format: functional, cell-based
# [15] = test system: CAL-27; test: Induction of apoptosis in human CAL-27 cells assessed as viable cells at 10 nM incubated for 72 hrs by Annexin V-FITC/propidium iodide staining based flow cytometry analysis (reference value: 90.41%); format: functional; conditions: read-out: Activity
# [16] = test system: CAL-27; test: Induction of apoptosis in human CAL-27 cells assessed as late apoptotic cells at 100 nM incubated for 72 hrs by Annexin V-FITC/propidium iodide staining based flow cytometry analysis (reference value: 1.82%); format: functional
# [17] = test system: CAL-27; test: Effect on cell cycle in human CAL-27 cells assessed as regulation of gene expression at 1 nM incubated for 48 hrs by GSEA analysis; format: functional, cell-based
# [18] = test system: CAL-27; test: Induction of apoptosis in human CAL-27 cells assessed as apoptotic cells at 100 nM incubated for 72 hrs by Annexin V-FITC/propidium iodide staining based flow cytometry analysis (reference value: 10.29%); format: functional
# [19] = test system: CAL-27; test: Antitumor activity against human CAL-27 cells xenografted in BALB/c mouse model assessed as reduction in nuclear division at 0.6 mg/kg, iv treated four times a week for 30 days by HE staining analysis; format: functional, organism-based; conditions: time 30.0 day
# [20] = test system: CAL-27; test: Induction of apoptosis in human CAL-27 cells assessed as early apoptotic cells at 1 nM incubated for 72 hrs by Annexin V-FITC/propidium iodide staining based flow cytometry analysis (reference value: 7.74%); format: functional
# [21] = test system: CAL-27; test: Effect on cell growth factor in human CAL-27 cells assessed as regulation of cell growth factor related gene expression at 1 nM incubated for 48 hrs by GO analysis; format: functional, cell-based
# [22] = test system: CAL-27; test: Antitumor activity against human CAL-27 cells xenografted in BALB/c mouse model assessed as cancer cell death at 0.6 mg/kg, iv treated four times a week for 30 days by HE staining analysis; format: functional, organism-based; conditions: time 30.0 day
# [23] = test system: A549; test: Cytotoxicity against human A549 cells incubated for 72 hrs by MTT assay; format: functional, cell-based; conditions: A549, 72 h
# [24] = test system: CAL-27; test: Effect on apoptosis in human CAL-27 cells assessed as regulation of gene expression at 1 nM incubated for 48 hrs by GSEA analysis; format: functional, cell-based
# [25] = test system: CAL-27; test: Induction of apoptosis in human CAL-27 cells assessed as apoptotic cells at 10 nM incubated for 72 hrs by Annexin V-FITC/propidium iodide staining based flow cytometry analysis (reference value: 10.29%); format: functional
# [26] = test system: CAL-27; test: Induction of apoptosis in human CAL-27 cells assessed as late apoptotic cells at 1000 nM incubated for 72 hrs by Annexin V-FITC/propidium iodide staining based flow cytometry analysis (reference value: 2.57%); format: functional
# [27] = test system: CAL-27; test: Induction of apoptosis in human CAL-27 cells assessed as early apoptotic cells at 10 nM incubated for 72 hrs by Annexin V-FITC/propidium iodide staining based flow cytometry analysis (reference value: 9.16%); format: functional
# [28] = test system: CAL-27; test: Induction of apoptosis in human CAL-27 cells assessed as late apoptotic cells at 1 nM incubated for 72 hrs by Annexin V-FITC/propidium iodide staining based flow cytometry analysis (reference value: 2.57%); format: functional
# [29] = test system: CAL-27; test: Induction of apoptosis in human CAL-27 cells assessed as early apoptotic cells at 1000 nM incubated for 72 hrs by Annexin V-FITC/propidium iodide staining based flow cytometry analysis (reference value: 9.16%); format: functional
# [30] = test system: CAL-27; test: Induction of apoptosis in human CAL-27 cells assessed as late apoptotic cells at 100 nM incubated for 72 hrs by Annexin V-FITC/propidium iodide staining based flow cytometry analysis (reference value: 2.57%); format: functional
# [31] = test system: CAL-27; test: Induction of apoptosis in human CAL-27 cells assessed as early apoptotic cells at 100 nM incubated for 72 hrs by Annexin V-FITC/propidium iodide staining based flow cytometry analysis (reference value: 9.16%); format: functional
# [32] = test system: CAL-27; test: Induction of apoptosis in human CAL-27 cells assessed as viable cells at 1 nM incubated for 72 hrs by Annexin V-FITC/propidium iodide staining based flow cytometry analysis (reference value: 88.23%); format: functional; conditions: read-out: Activity
# [33] = test system: CAL-27; test: Induction of apoptosis in human CAL-27 cells assessed as late apoptotic cells at 10 nM incubated for 72 hrs by Annexin V-FITC/propidium iodide staining based flow cytometry analysis (reference value: 2.57%); format: functional
# [34] = test system: CAL-27; test: Induction of apoptosis in human CAL-27 cells assessed as viable cells at 1000 nM incubated for 72 hrs by Annexin V-FITC/propidium iodide staining based flow cytometry analysis (reference value: 88.23%); format: functional; conditions: read-out: Activity
compound,measurement,setting,value
COc1cc2c(O[C@@H]3O[C@@H]4CO[C@@H](c5ccsc5)O[C@H]4[C@H](O)[C@H]3O)c3c(c(-c4ccc5c(c4)OCO5)c2cc1OC)C(=O)OC3,Activity,[1],Active
same,Activity,[2],27.61%
same,Activity,[3],Active
same,Activity,[4],36.94%
same,Activity,[5],25.74%
same,inhibition in vivo at 0.3 mg/kg,[6],29.2%
same,viability at 0.1 µM,[7],28.6%
same,Activity,[8],6%
same,half-life,[9],31 min
same,Activity,[10],2.19%
same,viability at 1 µM,[11],28.1%
same,Activity,[12],34%
same,Activity,[13],Active; Showed More Potent Suppression
same,Activity,[14],Active
same,viability at 0.01 µM,[15],55%
same,Activity,[16],41.19%
same,Activity,[17],Active
same,Activity,[18],50.9%
same,Activity,[19],Active
same,Activity,[20],4.74%
same,Activity,[21],Active
same,Activity,[22],Active
same,pIC50,[23],6.93
same,Activity,[24],Active
same,Activity,[25],41.84%
COc1cc2c(O)c3c(c(-c4ccc5c(c4)OCO5)c2cc1OC)C(=O)OC3 [DIPHYLLIN],Activity,[26],5.03%
same,Activity,[27],3.78%
same,Activity,[28],5.83%
same,Activity,[29],12.06%
same,Activity,[30],2.58%
same,Activity,[31],4.87%
same,viability at 0.001 µM,[32],91.4%
same,Activity,[33],1.34%
same,viability at 1 µM,[34],82.8%
